This passage reports EC50 and CC50 results from ChEMBL document CHEMBL1126500, “Kinase bypass: A new strategy for anti-HIV drug design” (Bioorg Med Chem Lett, 1993).

Where only a bound is given, the exact number is not on record here.

The test system of one data set is C8166. The experiment in a line: Compound was tested for its ability to inhibit the replication of HIV-1 in C8166 T-cells. Format: functional. Particulars: Homo sapiens, read-out: ED50 (the source's name).
Data set [1] is described as follows: Toxic dose required to inhibit the replication of HIV-1 in C8166 T-cells. The class given is ADME, cell-based. Particulars: human, read-out: TD50 (the source's name).

With `CC(=O)O[C@H]1C[C@H](n2cc(C)c(=O)[nH]c2=O)O[C@@H]1CO`, the EC50 in the data set on C8166 is greater than 200 µM. Moreover, the CC50 in data set [1] was greater than 200 µM.
For `Cc1cn([C@H]2C[C@H](OC(=O)C(Cl)(Cl)Cl)[C@@H](COP(=O)(OCC(Cl)(Cl)Cl)OCC(Cl)(Cl)Cl)O2)c(=O)[nH]c1=O`, in the data set with C8166, the EC50 was 50 µM. In data set [1], the CC50 was greater than 200 µM.
As for `Cc1cn([C@H]2C[C@H](OC(=O)C(C)C)[C@@H](COP(=O)(OCC(Cl)(Cl)Cl)OCC(Cl)(Cl)Cl)O2)c(=O)[nH]c1=O`, the EC50 in the data set with C8166 stood at 40 µM. Also, the CC50 in data set [1] was greater than 200 µM.
The corresponding values for `Cc1cn([C@H]2C[C@H](OC=O)[C@@H](COP(=O)(OCC(Cl)(Cl)Cl)OCC(Cl)(Cl)Cl)O2)c(=O)[nH]c1=O` are 100 µM and greater than 200 µM.
As to `CC(=O)O[C@H]1C[C@H](n2cc(C)c(=O)[nH]c2=O)O[C@@H]1COP(=O)(OCC(Cl)(Cl)Cl)OCC(Cl)(Cl)Cl`, the EC50 in the data set on C8166 turned out to be 30 µM. Further, in data set [1], the CC50 is greater than 200 µM.
The like results for `CCC(=O)O[C@H]1C[C@H](n2cc(C)c(=O)[nH]c2=O)O[C@@H]1COP(=O)(OCC(Cl)(Cl)Cl)OCC(Cl)(Cl)Cl` were, in that order, 35 µM and 80 µM.
As to `Cc1cn([C@H]2C[C@H](OC(=O)CCl)[C@@H](COP(=O)(OCC(Cl)(Cl)Cl)OCC(Cl)(Cl)Cl)O2)c(=O)[nH]c1=O`, in the data set on C8166, the EC50 worked out at 50 µM. Further, in data set [1], the CC50 turned out to be 50 µM.
For the compound `CCCC(=O)O[C@H]1C[C@H](n2cc(C)c(=O)[nH]c2=O)O[C@@H]1COP(=O)(OCC(Cl)(Cl)Cl)OCC(Cl)(Cl)Cl`, in the data set with C8166, the EC50 was found to be 75 µM. In addition, the CC50 in data set [1] came to 80 µM.
On to `Cc1cn([C@H]2C[C@H](N=[N+]=[N-])[C@@H](CO)O2)c(=O)[nH]c1=O` [ZIDOVUDINE], for which the EC50 with C8166 stood at 0.01 µM. Besides, in data set [1], the CC50 was greater than 200 µM.
